We go through 19 compounds from patent US9000020B2, “Linked dibenzimidazole antivirals” (Enanta Pharmaceuticals, Inc., priority 2009, dated 2015).

For the assay, the system named is HCV 1b genotype replicon. Briefly: HCV Replicon Assay - qRT-PCR (HCV RNA detection). The format is cell-based. The note with it: Hepatitis C virus, from the qRT-PCR or luciferase assay (not specified which), read-out: Genotype-1b replicon EC50 Range. The source says: HCV replicon cell lines (kindly provided by R. Bartenschlager) isolated from colonies as described by Lohman et. al. (Lohman et al. (1999) Science 285: 110-113, expressly incorporated by reference in its entirety) and used for all experiments. The HCV replicon has the nucleic acid sequence set forth in EMBL Accession No.: AJ242651, the coding sequence of which is from nucleotides 1801 to 8406.
The coding sequence of the published HCV replicon was synthesized and subsequently assembled in a modified plasmid pBR322 (Promega, Madison, Wis.) using standard molecular biology techniques. One replicon cell line (“SGR 11-7”) stably expresses HCV replicon RNA which consists of (i) the HCV 5′UTR fused to the first 12 amino acids of the capsid protein, (ii) the neomycin phosphotransferase gene (neo), (iii) the IRES from encephalomyocarditis virus (EMCV), and (iv) HCV NS2 to NS5B genes and the HCV 3′UTR. Another replicon cell line (“Huh-luc/neo-ET”) described by Vrolijk et. al. (Vrolijk et. al. (2003) Journal of Virological Methods 110:201-209, expressly incorporated by reference in its entirety) stably expresses HCV replicon RNA which consists of (i) the HCV 5′UTR fused to the first 12 amino acids of the capsid protein, (ii) the firefly luciferase reporter gene, (iii) the ubiquitin gene, (iv) the neomycin phosphotransferase gene (neo), (v) the IRES from encephalomyocarditis virus (EMCV), and (vi) HCV NS3 to NS5B genes that harbor cell culture adaptive mutations (E1202G, T1280I, K1846T) and the HCV 3′UTR.
These cell lines were maintained at 37° C., 5% CO2, 100% relative humidity in DMEM (Cat #11965-084, Invitrogen), with 10% fetal calf serum (“FCS”, Invitrogen), 1% non-essential amino acids (Invitrogen), 1% of Glutamax (Invitrogen), 1% of 100× penicillin/streptomycin (Cat #15140-122, Invitrogen) and Geneticin (Cat #10131-027, Invitrogen) at 0.75 mg/ml or 0.5 mg/ml for 11-7 and Huh-luc/neo-ET cells, respectively.
EC50 values of single agent compounds and combinations were determined by HCV RNA detection using quantitative RT-PCR, according to the manufacturer's instructions, with a TaqMan® One-Step RT-PCR Master Mix Reagents Kit (Cat #AB 4309169, Applied Biosystems) on an ABI Model 7500 thermocycler. The TaqMan primers used for detecting and quantifying were obtained from Integrated DNA Technologies. HCV RNA was normalized to GAPDH RNA levels in drug-treated cells, which was detected and quantified using the Human GAPDH Endogenous Control Mix (Applied Biosystems, AB 4310884E). Total cellular RNA was purified from 96-well plates using the RNAqueous 96 kit (Ambion, Cat #AM1812). Chemical agent cytotoxicity was evaluated using an MTS assay according to the manufacturer's directions (Promega).
The compounds of the present invention can be effective against the HCV 1b genotype. It should also be understood that the compounds of the present invention can inhibit multiple genotypes of HCV. In one embodiment, compound of the present invention are active against the 1a, 1b, 2a, 2b, 3a, 4a, and 5a genotypes. […] EC50 ranges against HCV 1b are as follows: A>10 nM; B 1-10 nM; C<1 nM.

pEC50: −log10 of the molar value. Where only a bound is given, the exact number is not on record here.

Take `CN(C)[C@@H](C(=O)N1CCC[C@H]1c1nc2cc(-c3ccc(-c4ccc5[nH]c([C@@H]6CCCN6C(=O)[C@@H](c6ccccc6)N(C)C)nc5c4)cc3)ccc2[nH]1)c1ccccc1` [Compound 2]: the pEC50 was above 9.00. The value for `COC(=O)N[C@@H](C(=O)N1CCC[C@H]1c1nc2cc(-c3ccc(-c4ccc5[nH]c([C@@H]6CCCN6C(=O)[C@H](NC(=O)OC)c6ccccc6)nc5c4)cc3)ccc2[nH]1)c1ccccc1` [Compound 3] was above 9.00; that for `CO[C@@H](C(=O)N1CCC[C@H]1c1nc2cc(-c3ccc(-c4ccc5[nH]c([C@@H]6CCCN6C(=O)[C@H](OC)c6ccccc6)nc5c4)cc3)ccc2[nH]1)c1ccccc1` [Compound 20] was above 9.00. On to `O=C([C@@H]1CCCO1)N1CCC[C@H]1c1nc2cc(-c3ccc(-c4ccc5[nH]c([C@@H]6CCCN6C(=O)[C@@H]6CCCO6)nc5c4)cc3)ccc2[nH]1` [Compound 25], for which the negative-log EC50 (pEC50) is below 8.00. The value for `O=C([C@H]1CCCO1)N1CCC[C@H]1c1nc2cc(-c3ccc(-c4ccc5[nH]c([C@@H]6CCCN6C(=O)[C@H]6CCCO6)nc5c4)cc3)ccc2[nH]1` [Compound 26] was below 8.00; that for `COC(=O)N[C@H]1CC[C@H](C(=O)N2CCC[C@H]2c2nc3cc(-c4ccc(-c5ccc6[nH]c([C@@H]7CCCN7C(=O)[C@H]7CC[C@H](NC(=O)OC)CC7)nc6c5)cc4)ccc3[nH]2)CC1` [Compound 42] was below 8.00; that for `O=C(c1ccncc1)N1CCC[C@H]1c1nc2cc(-c3ccc(-c4ccc5[nH]c([C@@H]6CCCN6C(=O)c6ccncc6)nc5c4)cc3)ccc2[nH]1` [Compound 52] was below 8.00. The value for `O=C(c1ccccn1)N1CCC[C@H]1c1nc2cc(-c3ccc(-c4ccc5[nH]c([C@@H]6CCCN6C(=O)c6ccccn6)nc5c4)cc3)ccc2[nH]1` [Compound 54] was below 8.00; that for `COC(=O)N[C@@H](C)C(=O)N1CCC[C@H]1c1nc2cc(-c3ccc(-c4ccc5[nH]c([C@@H]6CCCN6C(=O)[C@H](C)NC(=O)OC)nc5c4)cc3)ccc2[nH]1` [Compound 62] was above 9.00; that for `CC[C@H](NC(=O)OC)C(=O)N1CCC[C@H]1c1nc2cc(-c3ccc(-c4ccc5[nH]c([C@@H]6CCCN6C(=O)[C@H](CC)NC(=O)OC)nc5c4)cc3)ccc2[nH]1` [Compound 67] was above 9.00.

Regarding `COC(=O)N[C@H](C(=O)N1CCC[C@H]1c1nc2cc(-c3ccc(-c4ccc5[nH]c([C@@H]6CCCN6C(=O)[C@@H](NC(=O)OC)[C@@H](C)O)nc5c4)cc3)ccc2[nH]1)[C@@H](C)O` [Compound 70], the negative logarithm of the EC50 (pEC50) was above 9.00. Under `COC(=O)N[C@H](C(=O)N1CCC[C@H]1c1nc2cc(-c3ccc(-c4ccc5[nH]c([C@@H]6CCCN6C(=O)[C@@H](NC(=O)OC)[C@@H](C)OC)nc5c4)cc3)ccc2[nH]1)[C@@H](C)OC` [Compound 72] stands above 9.00; under `COC(=O)N[C@H](C(=O)N1CCC[C@H]1c1nc2cc(-c3ccc(-c4ccc5[nH]c([C@@H]6CCCN6C(=O)[C@@H](NC(=O)OC)C6CC6)nc5c4)cc3)ccc2[nH]1)C1CC1` [Compound 78], above 9.00; under `COC(=O)N[C@H](C(=O)N1CCC[C@H]1c1nc2cc(-c3ccc(-c4ccc5[nH]c([C@@H]6CCCN6C(=O)[C@@H](NC(=O)OC)C(C)C)nc5c4)cc3)ccc2[nH]1)C(C)C` [Compound 83], above 9.00. The value for `COC(=O)N[C@@H](Cn1cccn1)C(=O)N1CCC[C@H]1c1nc2cc(-c3ccc(-c4ccc5[nH]c([C@@H]6CCCN6C(=O)[C@H](Cn6cccn6)NC(=O)OC)nc5c4)cc3)ccc2[nH]1` [Compound 114] was above 9.00. Under `COC(=O)N[C@@H](C(=O)N1CCC[C@H]1c1nc2cc(N3CCN(c4ccc5[nH]c([C@@H]6CCCN6C(=O)[C@H](NC(=O)OC)c6ccccc6)nc5c4)CC3)ccc2[nH]1)c1ccccc1` [Compound 354] stands above 9.00; under `COC(=O)N[C@@H](C(=O)N1CCC[C@H]1c1nc2cc(N3CC(=O)N(c4ccc5[nH]c([C@@H]6CCCN6C(=O)[C@H](NC(=O)OC)c6ccccc6)nc5c4)CC3=O)ccc2[nH]1)c1ccccc1` [Compound 357], below 8.00; under `CC(C)[C@H](NC(=O)OCc1ccccc1)C(=O)N1CCC[C@H]1c1nc2cc(-c3ccc(-c4ccc5[nH]c([C@@H]6CCCN6C(=O)[C@@H](NC(=O)OCc6ccccc6)C(C)C)nc5c4)cc3)ccc2[nH]1` [Compound 361], below 8.00. As for `COC(=O)N[C@H](C(=O)N1CCC[C@H]1c1nc2cc(-c3ccc(-c4ccc5[nH]c([C@@H]6CCCN6C(=O)[C@@H](NC(=O)OC)C(C)(C)C)nc5c4)cc3)ccc2[nH]1)C(C)(C)C` [Compound 372], the pEC50 is above 9.00.
